Reference: patent publication US20240238380A1, “COMPOSITION FOR COMBINATION THERAPY COMPRISING GROWTH DIFFERENTIATION FACTOR-15 VARIANT AND GLUCAGON-LIKE PEPTIDE-1 RECEPTOR AGONIST” (YUHAN CORPORATION, priority 2021, published 2024)
Marks after values point to notes of the source that are not given here.

Tests used:
Format in all cases: in vivo
[1] = Anti-obesity effect alone and in combination with semaglutide or tirzepatide in DIO mice (Example 7); settings: for Change in body weight (%) vs. day 0, Maximum efficacy: 4 weeks
Excerpt: Diet-induced obese (DIO) mice, obtained by feeding mice with high-fat diet, are characterized by obesity, hyperglycemia, and insulin resistance. Diet-induced obese mice (Taconic, USA) resulting from feeding C57BL/6N mice with high-fat food (60 kcal % fat, Research Diets, Cat #D12492, USA) for 8 weeks were purchased from Raon Bio (Animal Inc., Republic of Korea). The diet-induced obese mice were additionally fed with 60% high-fat food for 5 weeks after arrival, and then used in the present test. On the day before drug treatment, the mice were grouped based on the average body weight of individual mice (n=6 per group), after which 0.1 and 1 nmol/kg of FM9-6+Fc_hole alone, 10 nmol/kg of semaglutide (long-acting GLP-1 derivative, SEQ ID NO: 114) and 10 nmol/kg of tirzepatide (long-acting GLP-1/GIP derivative, SEQ ID NO: 117) alone as control drugs, FM9-6+Fc_hole and semaglutide at doses of 0.1+10 and 1+10 nmol/kg in combination, and FM9-6+Fc_hole and tirzepatide at doses of 1+10 nmol/kg in combination were subcutaneously administered thereto every 3 days (Q3D) for a total of 4 weeks. The semaglutide that was used in the test was Ozempic® (semaglutide) from Novo NorDisk, and the tirzepatide that was used was a material synthesized by MedChemExpress (HY-P1731B, USA). Here, DPBS (Dulbecco's phosphate-buffered saline, Gibco, USA) was administered for vehicle treatment, and, during the experimental period (26 days), body weight was measured every day and food intake was measured every 3 days.

[2] = Anti-obesity and metabolic parameter effects alone and in combination with large dose of semaglutide in ob/ob mice (Example 6); settings: 1 nmol/kg s.c. Q3D
Excerpt: 5-week-old male ob/ob mice (Jackson Laboratory, USA) were purchased from Raon Bio (Animal Inc., Republic of Korea). The ob/ob mice were acclimatized with normal chow or normal chow diet (Teklad Certified Irradiated Global 18% Protein Rodent Diet, 2918C, Harlan Co., USA) for 5 weeks, and drug treatment was started at 10 weeks of age. On the day before drug treatment, the mice were grouped based on the body weight of individual mice and random blood glucose levels determined by sampling at the tail vein (n=6 per group). Thereafter, 1 nmol/kg of FM9-6+Fc_hole alone, 30 nmol/kg of semaglutide alone, and FM9-6+Fc_hole and semaglutide in combination (1+30 nmol/kg) were subcutaneously administered thereto a total of 9 times every 3 days (Q3D), and body weight, food intake, and non-fasting blood glucose were measured every day or every 3 days during the experimental period (24 days). Here, DPBS (Dulbecco's phosphate-buffered saline, Gibco, USA) was administered for vehicle treatment.

[3] = Pharmacokinetics of long-acting GDF15 fusion protein (dimer) in C57BL/6N mice; settings: 1 mg/kg subcutaneous
Protocol: 6-week-old male C57BL/6N mice (Orient Bio, Republic of Korea) were purchased from Hallym Lab. Animal Inc., Republic of Korea. Animals were acclimated for 7 days, and on the day of drug administration, the mice were grouped based on the average body weight of individual mice (n=3 per blood sampling time per group). Then, FM9-4+Fc_hole, FM9-6+Fc_hole, FM11-4+Fc_hole, and FM11-6+Fc_hole were subcutaneously administered at 1 mg/kg to each group, and blood samples were collected at 4, 24, 48, 72, 96, 120, 168, and 240 hours after administration. Determination of active GDF15 in serum was achieved by enzyme-linked immunosorbent assay (ELISA), and pharmacokinetic parameters of each long-acting GDF15 fusion protein (dimer) are shown in Table 3 below.

[4] = Anti-obesity effect alone and in combination with semaglutide in diet-induced obese (DIO) mice (Example 4); settings: for Change in body weight (%) vs. day 0, Maximum efficacy: 8 weeks
Excerpt: Diet-induced obese (DIO) mice, obtained by feeding mice with high-fat food, are characterized by obesity, hyperglycemia, and insulin resistance. Diet-induced obese mice (Taconic, USA) resulting from feeding C57BL/6N mice with high-fat food (60 kcal % fat, Research Diets, Cat #D12492, USA) for 8 weeks were purchased from Raon Bio (Animal Inc., Republic of Korea). The diet-induced obese mice were additionally fed with 60% high-fat food for 5 weeks after arrival, and then used in the present test. On the day before drug treatment, the mice were grouped based on the average body weight of individual mice (n=6 per group), after which 10 and 30 nmol/kg of FM9-6+Fc_hole alone, 10 and 30 nmol/kg of semaglutide (long-acting GLP-1 derivative, SEQ ID NO: 114) alone as a control drug, and FM9-6+Fc_hole and semaglutide were administered subcutaneously every 2 days (Q2D) for a total of 8 weeks in a combination of 10+10 and 30+30 nmol/kg. The semaglutide that was used in the test was Ozempic® (semaglutide) from Novo NorDisk. Here, for vehicle treatment, DPBS (Dulbecco's phosphate-buffered saline, Gibco, USA) was subcutaneously administered every 2 days (Q2D). Body weight was measured every 2 days from the first day of drug treatment to day 54, and the results thereof are shown in Table 4 below.

[5] = Anti-obesity effect by repeated administration alone and in combination with semaglutide in ob/ob mice (Example 5)
Excerpt: The ob/ob mouse has a mutation in the leptin gene resulting in leptin deficiency, and are characterized by hyperglycemia, insulin resistance, overeating, and obesity. 5-week-old male ob/ob mice (Jackson Laboratory, USA) were purchased from Raon Bio (Animal Inc., Republic of Korea). The ob/ob mice were acclimatized with normal food (Teklad Certified Irradiated Global 18% Protein Rodent Diet, 2918C, Harlan Co., USA) for 4 weeks, and drug treatment was started at 9 weeks of age. On the day before drug treatment, the mice were grouped based on the body weight of individual mice and random blood glucose levels determined by sampling at the tail vein (n=6 per group). Thereafter, 1 and 10 nmol/kg of FM9-6+Fc_hole alone, 10 and 30 nmol/kg of semaglutide alone, and FM9-6+Fc_hole and semaglutide at doses of 1+10 and 10+10 nmol/kg in combination were subcutaneously administered thereto a total of 10 times every 3 days (Q3D), and body weight and food intake were measured every day or every 3 days during the experimental period (29 days). Here, DPBS (Dulbecco's phosphate-buffered saline, Gibco, USA) was administered for vehicle treatment.

FM9-6 + Fc_hole: long-acting GDF15 fusion protein (dimer): GDF15 ΔN2, S64R, IgG1 Fc_knob/Fc_hole, linker GS(EAAAK)5; SEQ ID NOs: 103 and 47
Change in body weight (%) vs. day 0, Maximum efficacy ([1]; 0.1 nmol/kg s.c. Q3D): −6.75 (On Day 25)** % | Change in body weight (%) vs. day 0, Efficacy on Day 26 ([1]; 0.1 nmol/kg s.c. Q3D): −6.68** % | Change in body weight (%) vs. day 0, Maximum efficacy ([1]; 1 nmol/kg s.c. Q3D): −16.33 (On Day 23)**** % | Change in body weight (%) vs. day 0, Efficacy on Day 26 ([1]; 1 nmol/kg s.c. Q3D): −16.29**** % | Change in body weight (%) vs. ob/ob control, Efficacy on Day 24 [2]: −23.37**** % | Mean of random blood glucose levels (mg/dL), Efficacy on Day 24 [2]: 116.2**** mg/dL | AUClast [3]: 939.30872 µg·h/mL | CL/F [3]: 21.8 mL/day/kg | T1/2,app [3]: 84.28 h | Tmax [3]: 24 h | Cmax ([3]; active GDF15 in serum by ELISA): 7581.92 ng/mL | Change in body weight (%) vs. day 0, Maximum efficacy ([4]; 10 nmol/kg s.c. Q2D): −34.57 (On Day 54)**** % | Change in body weight (%) vs. day 0, Efficacy on Day 54 ([4]; 10 nmol/kg s.c. Q2D): −34.57**** % | Change in body weight (%) vs. day 0, Maximum efficacy ([4]; 30 nmol/kg s.c. Q2D): −35.07 (On Day 54)**** % | Change in body weight (%) vs. day 0, Efficacy on Day 54 ([4]; 30 nmol/kg s.c. Q2D): −35.07**** % | Change in body weight (%) vs. ob/ob control, Maximum efficacy ([5]; 1 nmol/kg s.c. Q3D): −21.49 (On Day 29)**** % | Change in body weight (%) vs. ob/ob control, Efficacy on Day 29 ([5]; 1 nmol/kg s.c. Q3D): −21.49**** % | Change in body weight (%) vs. ob/ob control, Maximum efficacy ([5]; 10 nmol/kg s.c. Q3D): −24.87 (On Day 29)**** % | Change in body weight (%) vs. ob/ob control, Efficacy on Day 29 ([5]; 10 nmol/kg s.c. Q3D): −24.87 **** %
